Test results: the NIST ThermoML archive (doi:10.1016/j.jct.2008.10.016)

Assays:
[1] = Drop volume
[2] = xn = mol fraction of the nth substance listed; settings: Drop volume

CCCCCl [1-chlorobutane]
[1]
Settings | surface tension liquid-gas [mN/m]
283.15 K | 24.73
288.15 K | 24.24
293.15 K | 23.64
298.15 K | 23.29
303.15 K | 22.62
308.15 K | 22.03
313.15 K | 21.53

CCCCCl [1-chlorobutane] + CCCCCC
surface tension liquid-gas [mN/m], [2]
Settings | 283.15 K | 288.15 K | 293.15 K | 298.15 K | 303.15 K | 308.15 K | 313.15 K
x2 = 0.0493 | 24.17 | 23.68 | 23.11 | 22.74 | 22.08 | 21.5 | 21.04
x2 = 0.1016 | 23.7 | 23.21 | 22.63 | 22.27 | 21.62 | 21.03 | 20.59
x2 = 0.2048 | 22.96 | 22.46 | 21.88 | 21.52 | 20.89 | 20.28 | 19.84
x2 = 0.3038 | 22.32 | 21.83 | 21.28 | 20.93 | 20.32 | 19.69 | 19.28
x2 = 0.3967 | 21.82 | 21.32 | 20.79 | 20.43 | 19.83 | 19.18 | 18.79
x2 = 0.5015 | 21.29 | 20.78 | 20.25 | 19.89 | 19.31 | 18.64 | 18.27
x2 = 0.6086 | 20.85 | 20.31 | 19.77 | 19.39 | 18.82 | 18.14 | 17.81
x2 = 0.7097 | 20.48 | 19.93 | 19.4 | 19 | 18.46 | 17.77 | 17.47
x2 = 0.804 | 20.19 | 19.63 | 19.1 | 18.71 | 18.18 | 17.46 | 17.18
x2 = 0.9021 | 19.91 | 19.35 | 18.84 | 18.43 | 17.91 | 17.16 | 16.89
x2 = 0.9391 | 19.81 | 19.24 | 18.73 | 18.31 | 17.79 | 17.02 | 16.75
